The results in this text go back to patent US8987314B2, “Amide, urea or sulfone amide linked benzothiazole inhibitors of endothelial lipase” (Bristol-Myers Squibb Company, priority 2012, dated 2015).

The target of one test is hepatic lipase (HL) (Homo sapiens (Human), UniProt P11150). In words: HL assay: hepatic lipase activity with fluorescent substrate A10070 in DMPG vesicles. The test is classed as biochemical. The method in brief:
(§1)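 Substrate A10070 sits in sonicated DMPG vesicles at 0.11 mole fraction. Lipase and compound preincubated 30 min, 37° C, in HEPES pH 8.0 buffer with CaCl2.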

For a further test, the target named is Endothelial lipase (EL) (Homo sapiens (Human), UniProt Q9Y5X9). Nature of the test: EL assay: endothelial lipase activity with fluorescent substrate A10070 in DMPG vesicles. Type of test: biochemical. The method in brief:
as §1

Chain of hepatic lipase (HL) (P11150 23-499, species assumed): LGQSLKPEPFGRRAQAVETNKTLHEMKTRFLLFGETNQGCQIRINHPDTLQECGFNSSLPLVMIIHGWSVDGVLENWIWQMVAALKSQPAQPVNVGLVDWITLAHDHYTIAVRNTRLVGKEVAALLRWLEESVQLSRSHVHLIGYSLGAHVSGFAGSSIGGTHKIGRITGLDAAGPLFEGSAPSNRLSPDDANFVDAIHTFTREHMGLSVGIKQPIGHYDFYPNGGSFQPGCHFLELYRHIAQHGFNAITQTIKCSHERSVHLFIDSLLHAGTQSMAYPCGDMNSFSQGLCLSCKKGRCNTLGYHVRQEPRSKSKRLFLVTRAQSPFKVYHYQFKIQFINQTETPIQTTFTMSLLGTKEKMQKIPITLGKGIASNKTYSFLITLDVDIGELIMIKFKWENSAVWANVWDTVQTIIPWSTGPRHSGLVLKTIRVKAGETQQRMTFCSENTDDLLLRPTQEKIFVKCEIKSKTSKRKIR
Chain of Endothelial lipase (EL) (Q9Y5X9 21-500): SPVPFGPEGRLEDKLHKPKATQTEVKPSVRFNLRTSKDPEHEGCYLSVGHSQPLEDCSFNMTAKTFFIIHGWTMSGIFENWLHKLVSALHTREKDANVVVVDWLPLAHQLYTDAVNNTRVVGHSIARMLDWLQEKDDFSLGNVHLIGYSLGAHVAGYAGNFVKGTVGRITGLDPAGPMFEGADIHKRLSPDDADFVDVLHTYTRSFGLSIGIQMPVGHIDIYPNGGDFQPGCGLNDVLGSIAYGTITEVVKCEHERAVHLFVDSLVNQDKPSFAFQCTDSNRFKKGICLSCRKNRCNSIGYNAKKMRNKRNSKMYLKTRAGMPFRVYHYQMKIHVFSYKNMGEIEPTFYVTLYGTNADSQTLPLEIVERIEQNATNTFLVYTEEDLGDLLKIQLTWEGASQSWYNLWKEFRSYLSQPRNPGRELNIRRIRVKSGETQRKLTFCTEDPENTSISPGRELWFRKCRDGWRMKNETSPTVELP

By IC50 is commonly meant the concentration that inhibits the measured activity by half. A higher IC50 goes with a need for much substance. Turning to `NS(=O)(=O)CCNC(=O)C(c1nc2ccc(-c3ccc(C(=O)N4CCOCC4)cc3)cc2s1)S(=O)(=O)CC1CC1` (stereo not shown) [Example B111, 2-((cyclopropylmethyl)sul-fonyl)-2-(6-(4-(4-morpholinylcarbonyl)phen-yl)-1,3-benzothiazol-2-yl)-N-(2-sulfamoylethyl)a-cetamide], the IC50 on hepatic lipase (HL) is 1.46 µM; on Endothelial lipase (EL), less than 0.01 µM.

As for `COCCNC(=O)c1ccc(-c2ccc3nc(C(C(=O)NCCS(N)(=O)=O)S(=O)(=O)Cc4ccc(F)cc4)sc3c2)cc1` (stereo not shown) [Example B112, 4-(2-(1-((4-fluorobenzyl)sul-fonyl)-2-oxo-2-((2-sulfamoylethyl)amino)eth-yl)-1,3-benzothiazol-6-yl)-N-(2-methoxyethyl)ben-zamide], the IC50 against hepatic lipase (HL) is 8.33 µM; at Endothelial lipase (EL), less than 0.01 µM.

For the compound `COCCNC(=O)c1ccc(-c2ccc3nc(C(C(=O)NCCS(N)(=O)=O)S(=O)(=O)Cc4ccc(OC(F)(F)F)cc4)sc3c2)cc1` (stereo not shown) [Example B113, N-(2-methoxyethyl)-4-(2-(2-oxo-2-((2-sulfamoyl-ethyl)amino)-1-((4-(trifluoromethoxy)ben-zyl)sulfonyl)ethyl)-1,3-benzothiazol-6-yl)ben-zamide], the IC50 against hepatic lipase (HL) was 0.0482 µM; on Endothelial lipase (EL) it was 0.0007 µM.

Turning to `COCCNC(=O)c1ccc(-c2ccc3nc(C(C(=O)NCCS(N)(=O)=O)S(=O)(=O)Cc4cccc(C#N)c4)sc3c2)cc1` (stereo not shown) [Example B115], the results for the IC50 against hepatic lipase (HL) and against Endothelial lipase (EL) were 0.107 µM and 0.0012 µM, respectively.

For the compound `COCCNC(=O)c1ccc(-c2ccc3nc(C(C(=O)NCCS(N)(=O)=O)S(=O)(=O)Cc4ccc(C(F)(F)F)cc4)sc3c2)cc1` (stereo not shown) [Example B116, N-(2-methoxyethyl)-4-(2-(2-oxo-2-((2-sulfamoyl-ethyl)amino)-1-((4-(trifluoromethyl)benzyl)sul-fonyl)ethyl)-1,3-benzothiazol-6-yl)ben-zamide], the IC50 on hepatic lipase (HL) is 0.182 µM; on Endothelial lipase (EL) it was less than 0.01 µM.

For the compound `COCCNC(=O)c1ccc(-c2ccc3nc(C(C(=O)NCCS(N)(=O)=O)S(=O)(=O)Cc4cccc(F)c4)sc3c2)cc1` (stereo not shown) [Example B117, 4-(2-(1-((3-fluorobenzyl)sulfonyl)-2-oxo-2-((2-sulfamoylethyl)a-mino)ethyl)-1,3-benzothiazol-6-yl)-N-(2-methoxyethyl)benzamide], the values for the IC50 against hepatic lipase (HL) and against Endothelial lipase (EL) were 0.176 µM and less than 0.01 µM, respectively.

Take `NS(=O)(=O)CCNC(=O)C(c1nc2ccc(-c3ccccc3)cc2s1)S(=O)(=O)CC1CC1` (stereo not shown) [Example B118, 2-((cyclopropylmethyl)sul-fonyl)-2-(6-phenyl-1,3-benzothiazol-2-yl)-N-(2-sulfamoylethyl)acetamide]: the IC50 at hepatic lipase (HL) is 0.01 µM; at Endothelial lipase (EL), less than 0.01 µM.

For `NS(=O)(=O)CCNC(=O)C(c1nc2ccc(-c3ccccc3)cc2s1)S(=O)(=O)Cc1ccc(F)cc1` (stereo not shown) [Example B119, 2-((4-fluorobenzyl)sul-fonyl)-2-(6-phenyl-1,3-benzothiazol-2-yl)-N-(2-sulfamoylethyl)acetamide], the IC50 against hepatic lipase (HL) is 0.011 µM; against Endothelial lipase (EL), less than 0.01 µM.

For the compound `N#Cc1cccc(CS(=O)(=O)C(C(=O)NCCS(N)(=O)=O)c2nc3ccc(-c4ccccc4)cc3s2)c1` (stereo not shown) [Example B120, 2-((3-cyanobenzyl)sul-fonyl)-2-(6-phenyl-1,3-benzothiazol-2-yl)-N-(2-sulfamoylethyl)acetamide], the IC50 is 0.015 µM against hepatic lipase (HL) and less than 0.01 µM on Endothelial lipase (EL).

Turning to `COc1ccc(CN(Cc2ccc(OC)cc2)S(=O)(=O)CCNC(=O)C(c2nc3ccc(-c4ccccc4)cc3s2)S(C)(=O)=O)cc1` (stereo not shown) [Example B121, N-(2-(bis(4-methoxybenzyl)sulfamoyl)eth-yl)-2-(methylsulfonyl)-2-(6-phenyl-1,3-benzothiazol-2-yl)a-cetamide], the IC50 on hepatic lipase (HL) stood at 0.011 µM; against Endothelial lipase (EL), 0.08 µM.

Regarding `NS(=O)(=O)CCNC(=O)C(c1nc2ccc(-c3cnn(CCN4CCOCC4)c3)cc2s1)S(=O)(=O)Cc1ccccc1` (stereo not shown) [Example B122, 2-(benzylsulfonyl)-2-(6-{1-[2-(4-morpholinyl)ethyl]-1H-pyrazol-4-yl}-1,3-benzothiazol-2-yl)-N-(2-sulfamoylethyl)acetamide], the results for the IC50 against hepatic lipase (HL) and at Endothelial lipase (EL) were 0.631 µM and 0.044 µM, respectively.
